# Laboratory results as given in US8110543B2, “Anti-invasive and anti-angiogenic compositions” (Angstrom Pharmaceuticals, Inc., priority 1997, dated 2012).
# Experiments:
# [1] = set-up: species or system mice; settings: mouse, in vivo
# Procedure: CDDP was tested at a dose of 3 mg/kg/day given every other day from day 4×6 administrations, which converts to approximately 6 mg/m^2 per administration. This is a substantially lower dose than that typically given to human patients (20-40 mg/m^2 for most tumors although doses as high as 200 mg/m^2 have been reported in neuroblastomas; the dose depends on the regimen used) since dose limiting toxicity (as exemplified by weight loss) occurs in mice at doses greater than 6 mg/m^2.
# U87 tumors = assay: U87 glioblastoma orthotopic model; format: in vivo, mice; settings: tumor sections, mouse-CD31 immunostaining
# Procedure: U87 cells were inoculated into the ventricles of nude mice and treatment was initiated 72 hrs after inoculation. Tumor volume was determined using caliper measurements after euthanasia and necropsy.
# A: Control; B: Å6 only; C: CDDP only; D: Å6+CDDP.
# U87 tumors were surgically inoculated into the cerebral ventricles of mice. The animals were allowed to recover for 72 hours at which time treatment with Å6 (75 mg/kg/day IP bid), CDDP (3 mg/kg/day given every other day from day 4×6 administrations), or a combination of Å6+CDDP was initiated,
# Animals were treated for 21 days at which time they were euthanized and their brains evaluated for the presence of tumor. Transverse sections were stained with hematoxylin and eosin (H&E).
# Tumor sections were also evaluated for microvessel density using antibodies specific for mouse-CD31 in immunostaining. Very few CD31^+ foci were evident in animals treated with the combination of Å6+CDDP.
# Tumors were established as in the previous section, and the same therapeutic regimens were employed. Treatment was discontinued at day 21, and survival was measured. Control animals appeared moribund around day 25 and all of the animals in this group were dead by day 30.
compound,measurement,setting,value
"[NH2][Pt]([NH2])([Cl])[Cl] [CDDP, cisplatin, reference compound]",dose at which dose limiting toxicity (weight loss) occurs,[1],greater than 6 mg/m^2
same,"microvessel density (CD31+ foci), angiogenesis",U87 tumors,inhibited angiogenesis to some extent
